# Results from US20250115669A1, “FGFR1/KLB Targeting Agonistic Antigen-Binding Proteins and Conjugates Thereof with GLP-1R Agonistic Peptides” (SANOFI, priority 2020, published 2025).
# Experiments:
# [1] = SAR16 (16H7) standalone and in combination with dulaglutide in DIO NASH cynomolgus monkeys; assay type: in vivo, Cynomolgus monkey (Macaca fascicularis)
# Protocol: Both were tested as single administration and in combination of both in the most relevant animal model that reflects the intended human population. Thus, the pharmacokinetic and pharmacodynamics of varying doses of the compounds were explored in the high-fat diet-induced obese and insulin resistance cynomolgus monkey model with diagnosed non-alcoholic steatohepatitis (NASH), mimicking the adult human NASH insulin resistance phenotype.
# Cynomolgus monkey (Macaca fascicularis) was selected as the test species of choice for more meaningful results that were translatable to humans. More than 50 male monkeys were trained to identify 40 HFD induced obese NASH monkeys for the study.
# There was a run-in period during which monkeys were injected subcutaneously with vehicle every third day. Food intake (calculated as TEI) and water intake were measured daily along with twice-weekly body weight evaluation and baseline value determination for metabolic biomarkers, safety biomarkers, IV glucose tolerance test (IVGTT), liver biopsy for gene expression analysis, and profile for glucose, insulin, and plasma lipids.
# For the dosing period 40 trained monkeys (n=10 per group) were selected and stratified for body weight, fasting plasma glucose (FPG), and fasting plasma insulin (FPI) and insulin response from baseline during the IVGTT. All treatments were administered subcutaneously for […]. The dosing period was designed as a four-arm, dose-ramping study, and monkeys were treated with either vehicle, SAR10, SAR16, or a combination of both SAR10 and SAR16.
# The SAR10-treated monkeys were dosed every 3rd day at 60 μg/kg initiated by dose ramping (3 dose steps, week 1: 20 μg/kg, week 2: 40 μg/kg, week 3 to runout: 60 μg/kg). The SAR16-treated monkeys were dosed at 1 mg/kg on day +1, 3 mg/kg on day +16, and then repeat maintenance dose of 3 mg/kg on day +46. The Combo-treated monkey were dosed with both SAR10 and SAR16 as the same pattern of the SAR10 and SAR16 treated monkeys.
# Other parameters were also measured during the study, including food intake, body fat, plasma ketone bodies, as well as blood glucose control (glucose profile, fed, fasting plasma glucose and during ivGTT). One group received the vehicle. The compounds were administered subcutaneously (SC) (12 weeks “evaluation phase” plus run-out) to obese and NASH male cynomolgus macaques (Macaca fascicularis).
# The SAR10-treated monkeys were dosed every 3rd day at 60 μg/kg initiated by dose ramping (3 dose steps, week 1: 20 μg/kg, week 2: 40 μg/kg, week 3 to runout: 60 μg/kg). The SAR16-treated monkeys were dosed at 1 mg/kg on day +1, 3 mg/kg on day +16, and then repeat maintenance dose of 3 mg/kg on day +46. The Combo-treated monkey were dosed with both SAR10 and SAR16 at the same pattern of the SAR10 and SAR16 treated monkeys.
# [2] = NHP study of Ab0335 (SAR18) versus 16H7 (SAR16) in high-fat diet-induced obese cynomolgus monkeys; assay type: in vivo, Cynomolgus monkey (Macaca fascicularis); settings: for body weight compared to baseline values (value prior start of treatment) / food intake: obese cynomolgus monkeys; for body weight (in words): SAR16 1 mg/kg, SAR18 low- and high-dose; for food intake: especially lunch (apple), lesser impact on dinner (HFD); for plasma triglyceride (TG) values: over the whole study period
# Protocol: Both were tested as single administration in the most relevant animal model that reflects the intended human population. Monkeys are a desirable species to examine the potential effects of drug candidates because of the similarity of their absorption, distribution, metabolism, and excretion profile compared to that of humans. The cynomolgus monkey is selected as the test species of choice over other lower mammalian species for more meaningful and translatable results because it is closely related to humans, both phylogenetically and physiologically. Thus, the pharmacokinetic and pharmacodynamics of varying doses of the compounds were explored in the high-fat diet-induced obese and insulin resistance cynomolgus monkey model.
# Cynomolgus monkey (Macaca fascicularis) was selected as the test species of choice for more meaningful results that were translatable to humans. More than 50 male monkeys were trained to identify 40 HFD induced obese monkeys for the study.
# They all fulfilled the following metabolic criteria: • weight at least 8 kg, age at least 8 years, fasting insulin >55 μU/mL (in comparison lean monkeys of same age range: weight 5 to 8 kg, fasting glucose ˜70 mg/dL, and fasting insulin ˜[…]), HbA1c >4%, triglycerides >1.3 mmol/L, LDL >5 mmol/L.
# The monkeys were individually housed in species- and size appropriate metabolic stainless-steel caging with ad libitum access to water and under controlled environmental conditions with room temperature of 18° C. to 29° C., relative humidity of 30% to 70%, and a minimum of 10 air changes per hour. A time-controlled lighting system provided a regular 12-hour light/12-hour dark diurnal cycle. Cages were cleaned at regular intervals. The monkeys had three meals per day with a daily energy intake of ˜680 kcal (˜2.85 MJ). All food was withdrawn at 5:00 PM so that monkeys were fasted overnight. Monkeys were provided with enrichment toys or devices at all times. […] Each batch of monkey chow was delivered with an accompanying certificate of analysis detailing nutritional composition and levels of specified contaminants (e.g., heavy metals, aflatoxin, and insecticides). Ad libitum access to water through the main system was suspended on days in which water intake was quantified.
# There was a run-in period during which monkeys were injected subcutaneously with vehicle once weekly. Food intake (calculated as TEI) and water intake were measured daily along with once-weekly body weight evaluation and one-time baseline value determination for metabolic biomarkers, safety biomarkers, IV glucose tolerance test (IVGTT), and profile for glucose, insulin, and plasma lipids.
# For the dosing period 40 trained monkeys (n=10 per group) were selected and stratified for their body weight, fat composition and triglycerides in a four-arm design. All treatments, including a vehicle treated control group were administered subcutaneously on days +1, +19 and +37 and monitored closely for 8 weeks followed by a 4-week observation wash-out period. The dosing period was designed as a four-arm study, and monkeys were treated with either vehicle, SAR16, or SAR18.
# The SAR16-treated monkeys were dosed at 1 mg/kg on day +1, day +19, and day +37. The SAR18-treated monkeys were dosed in the low-dose arm at 1 mg/kg on day +1, day +19, and day +37. SAR18 was further dosed in the high-dose arm at 3 mg/kg on day +1, day +19, and day +37.
# Other parameters were also measured during the study, including food intake, body fat, plasma ketone bodies, as well as, on blood glucose control (glucose profile, fed, fasting plasma glucose and during ivGTT). One group received the vehicle. The compounds were administered subcutaneously (SC) (12 weeks “evaluation phase” plus run-out) to obese male cynomolgus macaques (Macaca fascicularis).
# The SAR16-treated monkeys were dosed 3 times on day +1, day +19, and day +37 at 1 mg/kg. […]
# [3] = compared to the vehicle treated group
# [4] = day +76 compared to baseline (day −27)
Substance,body weight (in words) ([1]; DIO NASH cynomolgus monkeys),food intake ([1]; DIO NASH cynomolgus monkeys),"fasting glucose and fed glucose levels (12:30 and 18:30) [1, 3]","ivGTT glucose AUC [1, 3]","blood glucose levels, plasma profile [1, 4]","insulin, plasma profile [1, 4]","HDL levels, plasma profile ([1]; day +76 versus day −27)","T-ketones levels, plasma profile ([1]; day +76 versus day −27)","TC and LDL levels, plasma profile ([1]; day +76 versus day −27)","TG values, plasma profile ([1]; day +76 versus day −27)","liver fat fraction change (MRI) ([1]; measured on days +81/+82/+83/+84, DIO NASH cynomolgus monkeys)",NASH steatosis score ([1]; more monkeys improved compared to vehicle treated group),"body weight compared to baseline values (value prior start of treatment) ([2]; 1 mg/kg SC on day +1, +19, +37)",body weight (in words) [2],food intake [2],plasma triglyceride (TG) values [2],"body weight compared to baseline values (value prior start of treatment) ([2]; 3 mg/kg SC (high dose) on day +1, +19, +37)"
"16H7: anti FGFR1c/KLB monoclonal antibody of WO 2011/071783, IgG2 backbone; HC SEQ ID NO: 1, LC SEQ ID NO: 2 [Ab 16H7]",Significant reductions in body weight,Reduction of food intake,No significant change,significantly decreased,appreciable decreases,decreased,slightly increased,increased T-ketones levels,quite stable,lower TG values,−30.0%,improved steatosis score,86.5±1.6%,Significant reductions in body weight,Reduction of food intake,quite robustly reduced,–
"Ab0335: IgG4 PE; 16H7 VL (N25S, D49S, D50A, D91E, N93E); 16H7 VH (M34V, I83T, D109E); HC SEQ ID NO: 39, LC SEQ ID NO: 46",–,–,–,–,–,–,–,–,–,–,–,–,94.5±1.8%,Significant reductions in body weight,Reduction of food intake,quite robustly reduced,89.9±1.7%
